Common to all, as to assay: biochemical
What all share (parameters): Ubiquigent DUB profiler selectivity panel, remaining enzyme activity as % of control
Settings in all cases: read-out: % of control remaining

Assay [1] deals with T1, USP15 (Homo sapiens, UniProt Q9Y4E8).
T1 sequence (Q9Y4E8 1-981): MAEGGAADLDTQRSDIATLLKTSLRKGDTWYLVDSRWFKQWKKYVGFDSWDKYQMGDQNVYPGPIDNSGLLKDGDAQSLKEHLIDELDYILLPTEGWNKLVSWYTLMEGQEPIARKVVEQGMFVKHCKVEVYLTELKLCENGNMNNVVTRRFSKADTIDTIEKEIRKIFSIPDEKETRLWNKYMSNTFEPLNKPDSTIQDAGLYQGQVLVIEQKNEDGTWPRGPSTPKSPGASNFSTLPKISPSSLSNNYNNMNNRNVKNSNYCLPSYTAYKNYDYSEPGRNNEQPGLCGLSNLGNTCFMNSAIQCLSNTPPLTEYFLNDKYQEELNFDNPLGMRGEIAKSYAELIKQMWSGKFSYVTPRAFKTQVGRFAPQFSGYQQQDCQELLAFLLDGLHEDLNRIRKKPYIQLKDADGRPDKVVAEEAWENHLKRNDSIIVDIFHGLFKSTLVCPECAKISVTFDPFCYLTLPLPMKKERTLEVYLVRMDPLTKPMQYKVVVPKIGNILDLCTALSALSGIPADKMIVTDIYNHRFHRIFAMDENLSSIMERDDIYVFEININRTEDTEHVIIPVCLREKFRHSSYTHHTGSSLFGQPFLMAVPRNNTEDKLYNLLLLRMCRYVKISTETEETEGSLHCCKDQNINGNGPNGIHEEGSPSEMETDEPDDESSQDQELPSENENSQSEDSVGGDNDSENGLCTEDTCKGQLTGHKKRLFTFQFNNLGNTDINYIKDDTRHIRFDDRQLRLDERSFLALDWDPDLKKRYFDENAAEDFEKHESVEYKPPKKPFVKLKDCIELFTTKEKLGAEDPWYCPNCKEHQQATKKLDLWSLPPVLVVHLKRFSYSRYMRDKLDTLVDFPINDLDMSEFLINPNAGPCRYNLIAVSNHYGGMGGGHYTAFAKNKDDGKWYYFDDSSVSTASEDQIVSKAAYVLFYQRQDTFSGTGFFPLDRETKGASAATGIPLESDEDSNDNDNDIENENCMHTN
The procedure, abridged: (§1)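 In YFP-PRKN-overexpressing hTERT-RPE1 cells, 1 h antimycin A plus oligomycin A (1 μM each) with CMPD-39, then Western blot of TOMM20 ubiquitylation. Target engagement: 2 h compound, then 10 min HA-Ub-PA at 37°C, read as USP30 shift. DUB panel (>40 enzymes) screened at 1-100 μM.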

The target in assay [2] is T2, Ataxin3 (Homo sapiens, UniProt P54252).
T2 construct: gene ATXN3
The procedure, abridged:
as §1

Assay [3] deals with T3, OTUD6B (Homo sapiens, UniProt Q8N6M0).
T3 sequence (Q8N6M0 1-293): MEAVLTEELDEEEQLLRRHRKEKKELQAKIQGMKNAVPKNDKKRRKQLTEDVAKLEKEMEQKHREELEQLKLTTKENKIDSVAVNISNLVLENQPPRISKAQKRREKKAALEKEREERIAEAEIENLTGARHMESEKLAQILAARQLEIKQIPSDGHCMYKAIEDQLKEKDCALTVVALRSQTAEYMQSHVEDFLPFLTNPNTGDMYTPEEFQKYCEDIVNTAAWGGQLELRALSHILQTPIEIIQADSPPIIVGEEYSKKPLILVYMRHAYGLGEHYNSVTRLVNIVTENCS
In a few lines: as §1

Assay [4] deals with T4, USP14 (+Proteasome-VS@Kd) (Homo sapiens, UniProt P54578).
T4 construct: +Proteasome-VS@Kd
The procedure, abridged: as §1

Assay [5] addresses USP6 (Homo sapiens, UniProt P35125). In a few lines:
as §1

T2 sequence (P54252 whole entry): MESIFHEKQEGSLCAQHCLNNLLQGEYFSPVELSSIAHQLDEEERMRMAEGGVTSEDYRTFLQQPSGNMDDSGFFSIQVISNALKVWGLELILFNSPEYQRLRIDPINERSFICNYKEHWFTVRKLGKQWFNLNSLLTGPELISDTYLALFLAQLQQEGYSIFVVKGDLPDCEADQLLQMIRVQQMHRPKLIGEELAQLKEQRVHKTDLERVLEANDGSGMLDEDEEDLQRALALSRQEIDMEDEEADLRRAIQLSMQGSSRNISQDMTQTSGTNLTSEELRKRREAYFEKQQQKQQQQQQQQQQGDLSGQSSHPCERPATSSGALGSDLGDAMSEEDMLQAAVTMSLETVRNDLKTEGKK
T4 sequence (P54578 whole entry): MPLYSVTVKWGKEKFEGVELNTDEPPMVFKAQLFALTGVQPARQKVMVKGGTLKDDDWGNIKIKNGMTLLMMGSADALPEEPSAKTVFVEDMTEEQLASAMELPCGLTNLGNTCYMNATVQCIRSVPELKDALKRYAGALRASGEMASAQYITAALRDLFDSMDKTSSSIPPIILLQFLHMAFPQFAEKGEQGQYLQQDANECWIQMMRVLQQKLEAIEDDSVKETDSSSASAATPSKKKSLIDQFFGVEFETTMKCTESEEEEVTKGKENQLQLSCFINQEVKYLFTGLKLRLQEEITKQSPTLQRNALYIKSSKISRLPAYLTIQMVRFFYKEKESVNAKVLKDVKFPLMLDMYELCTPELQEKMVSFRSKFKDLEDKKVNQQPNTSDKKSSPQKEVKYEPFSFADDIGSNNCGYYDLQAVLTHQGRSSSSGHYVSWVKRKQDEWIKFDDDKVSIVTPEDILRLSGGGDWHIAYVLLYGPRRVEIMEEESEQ
Chain of USP6 (P35125 whole entry): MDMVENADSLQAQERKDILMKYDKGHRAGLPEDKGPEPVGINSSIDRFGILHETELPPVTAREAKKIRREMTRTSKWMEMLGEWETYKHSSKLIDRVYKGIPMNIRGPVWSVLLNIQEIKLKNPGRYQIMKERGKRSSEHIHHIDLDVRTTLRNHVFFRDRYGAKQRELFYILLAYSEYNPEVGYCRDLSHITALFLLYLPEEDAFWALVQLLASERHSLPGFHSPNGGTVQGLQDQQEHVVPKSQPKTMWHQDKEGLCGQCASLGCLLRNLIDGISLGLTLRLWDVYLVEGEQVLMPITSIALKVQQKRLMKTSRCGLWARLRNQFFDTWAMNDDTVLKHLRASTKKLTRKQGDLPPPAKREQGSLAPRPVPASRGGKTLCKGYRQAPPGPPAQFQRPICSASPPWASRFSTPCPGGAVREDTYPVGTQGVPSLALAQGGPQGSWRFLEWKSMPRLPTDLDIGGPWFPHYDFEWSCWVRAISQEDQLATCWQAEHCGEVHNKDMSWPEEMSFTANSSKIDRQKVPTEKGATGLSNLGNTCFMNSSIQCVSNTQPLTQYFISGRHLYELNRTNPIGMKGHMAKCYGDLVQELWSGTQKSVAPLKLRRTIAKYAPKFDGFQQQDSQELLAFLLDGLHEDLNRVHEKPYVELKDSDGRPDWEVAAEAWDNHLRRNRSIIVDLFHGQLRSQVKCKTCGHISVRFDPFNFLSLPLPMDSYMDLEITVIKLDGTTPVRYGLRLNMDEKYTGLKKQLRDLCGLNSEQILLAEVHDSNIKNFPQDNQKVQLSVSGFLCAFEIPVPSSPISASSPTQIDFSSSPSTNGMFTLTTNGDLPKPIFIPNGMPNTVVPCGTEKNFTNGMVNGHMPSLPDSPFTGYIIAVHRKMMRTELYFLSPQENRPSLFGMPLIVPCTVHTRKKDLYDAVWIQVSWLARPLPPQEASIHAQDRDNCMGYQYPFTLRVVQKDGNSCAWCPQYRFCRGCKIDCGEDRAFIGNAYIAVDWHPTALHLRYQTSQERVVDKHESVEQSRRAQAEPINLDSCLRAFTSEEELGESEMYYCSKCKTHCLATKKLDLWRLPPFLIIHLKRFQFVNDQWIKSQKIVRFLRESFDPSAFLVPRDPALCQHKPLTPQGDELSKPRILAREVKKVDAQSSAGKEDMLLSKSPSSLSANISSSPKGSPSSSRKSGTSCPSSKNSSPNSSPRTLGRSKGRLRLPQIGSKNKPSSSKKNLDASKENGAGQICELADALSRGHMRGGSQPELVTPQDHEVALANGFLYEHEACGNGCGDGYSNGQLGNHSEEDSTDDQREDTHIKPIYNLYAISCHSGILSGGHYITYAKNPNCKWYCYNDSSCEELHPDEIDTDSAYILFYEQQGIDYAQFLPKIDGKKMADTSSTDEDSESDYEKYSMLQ

As to `CC(C)(C)NS(=O)(=O)c1ccc(NC(=O)[C@H](Cc2ccccc2)NC(=O)c2ccc(F)cc2)cc1` [compound 39, CMPD-39], the remaining activity at 1 µM in assay [1] is 103%; in assay [2] it was 102%; in assay [3], 110%; in assay [4], 107%; in assay [5] it was 101%. Also, the remaining activity at 10 µM in assay [1] is 101%; in assay [2], 102%; in assay [3], 100%; in assay [4] it was 100%; in assay [5] it was 96.8%. For the same compound, the remaining activity at 100 µM in assay [1] came out at 98.1%; in assay [2] it was 101%; in assay [3], 101%; in assay [4] it was 96.1%; in assay [5] it was 90.6%.

The values above are taken from paper PMC8645336, “Benchmarking a highly selective USP30 inhibitor for enhancement of mitophagy and pexophagy” (Life Science Alliance, 2021).
